This is an account of results in patent EP0944629B1, “BIARYL-PYRIDOQUINAZOLINONE DERIVATIVES AS ANTI-CANCER AGENTS” (American Cyanamid Company, priority 1996, dated 1998).

The subject of one data set is A2780 S. Description: two cell line test procedure (sulforhodamine B cytotoxicity), A2780 S. The conditions noted are these: A2780 S cells, 48 hours exposure. The data set is classed as cell-based. As for the experimental part: (§1) A2780 S and A2780 DDP cells [Biochemical and Molecular Properties of Cisplatin-resistant A2780 Cells Grown in Folinic Acid; Y. Lu, J. Hnan, and K. Scanlon, J. Biol. Chem., 263, 4891-4894, 1988.] are grown in RPMI 1640 medium containing 5% fetal calf serum, 50 µg/ml streptomycin, 50 units/ml penicillin, 50 µg/ml gentamycin, 0.03% L-glutamine, 1 nM estradiol, 1 nM testosterone, 5 µg/mlinsulin, 5 µg/ml transferrin, and 5 ng/ml selenous acid, at 37°C, in a humidified atmosphere, containing 5% CO2. Experiments are done in the same media.
(§2) Cells are plated at the concentration of 5 x 10^4/ml on Day 0 of the experiment. On Day one control cells are fixed with trichloroacetic acid and 5 ten fold dilutions of tested compounds are added, in duplicates, to the remaining cells. On Day 3 (48 hours exposure to drugs) all cells are fixed with trichloroacetic acid, stained with 0.4% sulforhodamine B, and absorbency is read at 520 nm. The IC50s (concentration causing 50% inhibition) are determined for each drug.

In a further data set the test system is A2780 DDP. Description: two cell line test procedure (sulforhodamine B cytotoxicity), A2780 DDP. The conditions noted are these: A2780 DDP (cisplatin-resistant) cells, 48 hours exposure. The data set is classed as cell-based. As for the experimental part:
as §1, §2

Another data set relates to LS174T. As to conditions: days 1,5,9.
Data set [1] concerns P388. Description: Murine P388 Leukemia. The data set is classed as in vivo, CD2F1 mice. As for the experimental part:
CD2F1 mice are injected i.p. with 1 x 10^6 tumor cells on Day 0 of the test. Drugs are administered i.p. on Days 1, 5, and 9 after the tumor implantation. Positive drug response is indicated by a more than 25% increase in the mean life span (% ILS), relative to placebo treated controls. Drugs are considered to be toxic when the mean life span of the drug treated animals is more than 15% shorter than placebo treated controls.

A further data set has as its system COLON 26. Description: Murine Colon 26 Advanced, Metastatic Tumor. It is filed as in vivo, CD2F1 mice. On the procedure:
CD2F1 mice are injected i.p. with 5 x 10^5 tumor cells on Day 0 of the test. […] Positive drug response is indicated by a more than 25% increase in the mean life span (% ILS), relative to placebo treated controls. Drugs are considered to be toxic, when the mean life span of the drug treated animals is more than 15% shorter than placebo treated controls.

The conditions of data set [2]: reported by Denny et al.; cited from earlier work.
Data set [3] concerns P388. As to conditions: reported by Denny et al.; cited from earlier work.
The conditions of data set [4]: reported by Denny et al.; cited from earlier work. The source holds these as a separate data set.
Where [5] appears, read: COLON 26, 200 mg/kg i.p., days 5,9,13.
Where [6] appears, read: P388, 50 mg/kg i.p., days 1,5,9.
Where [7] appears, read: P388, 100 mg/kg i.p., days 1,5,9.
Setting [8] is: P388, 200 mg/kg i.p., days 1,5,9.

Converted amounts (≈) assume the structure as drawn. Read-outs that look alike come from different tables or passages of the source.

Protocol for LS174T: Human tumor fragments are implanted s.c. in athymic nude mice. Tumors are allowed to grow until they attain a mass of 100-150 mgs. […] Drugs are administered i.p. at Days 1, 5, and 9. Each mouse tumor mass is determined every 7 days, until Day 28, using caliper measurements of tumor length and width. Mean tumor mass for each group of animals is then calculated and the relative tumor growth determined. The relative tumor growth is defined as a ratio of the tumor mass on a given day to a tumor mass on Day 0. Calculation of % T/C (the relative tumor growth of treated group divided by the relative tumor growth of placebo group, multiplied by 100) is made for each day of measurement. A positive drug response is indicated by a % T/C value below 60%, and a p value in the Student t-test of less than 0.05. More than 20% deaths in the group related to the drug administration indicates toxicity.

Take `CN(C)CCNC(=O)c1cccn2c(=O)c3cc(-c4ccccc4-c4ccccc4)ccc3nc12` [Example 14, 11H-Pyrido[2,1-b]quinazoline-6-carboxamide, 2-[1,1'biphenyl]-2-yl-N-[2-(dimethylamino)ethyl]-11-oxo]: the “IC50 (µg/ml) A2780 S” value in the data set with A2780 S turned out to be 4.40 µg/mL (≈ 9.51 µM). In the data set on A2780 DDP, the “IC50 (µg/ml) A2780 DDP” value is 4.80 µg/mL (≈ 10.4 µM).

Consider `CN(C)CCNC(=O)c1cccn2c(=O)c3cc(-c4cccc(N(C)C)c4)ccc3nc12` [Example 21, 11H-Pyrido[2,1-b]quinazoline-6-carboxamide, N-[2-(dimethylamino)ethyl]-2-[3-(dimethylamino)phenyl]-11-oxo], for which the “IC50 (µg/ml) A2780 S” value in the data set with A2780 S is 0.20 µg/mL (≈ 0.466 µM). Besides, in the data set on A2780 DDP, the “IC50 (µg/ml) A2780 DDP” value stood at 0.50 µg/mL (≈ 1.16 µM).

For the compound `CC[C@]1(O)C[C@H]2CN(CCc3c([nH]c4ccccc34)[C@@](C(=O)OC)(c3cc4c(cc3OC)N(C=O)[C@H]3[C@@](O)(C(=O)OC)[C@H](OC(C)=O)[C@]5(CC)C=CCN6CC[C@]43[C@@H]65)C2)C1` [Vincristine, reference compound], in the data set on LS174T (1.0 mg/kg i.p.), the “%T/C” value was 52 %T/C. For the same compound, the “% ILS” value in the data set with P388 [1] (P388, 0.8 mg/kg i.p., days 1,5,9) is reported as “+114%”.

Take `Cl.Cl.O=C(NCCNCCO)c1cccn2c(=O)c3cc(-c4ccccc4)ccc3nc12` [Example 26, 11H-pyrido[2,1-b]quinazoline-6-carboxamide, N-[2-[(2-hydroxyethyl)amino]-ethyl]-11-oxo-2-phenyl, dihydrochloride]: the “IC50 (µg/ml) A2780 S” value in the data set with A2780 S turned out to be 0.80 µg/mL. In addition, the “IC50 (µg/ml) A2780 DDP” value in the data set with A2780 DDP turned out to be 3.50 µg/mL.

As to `CN(C)CCNC(=O)c1cccn2c(=O)c3cc(-c4cccc(N)c4)ccc3nc12` [Example 13, 11H-Pyrido[2,1-b]quinazoline-6-carboxamide, 2-(3-aminophenyl)-N-[2-(dimethyl-amino)ethyl]-11-oxo], in the data set with A2780 S, the “IC50 (µg/ml) A2780 S” value is 0.40 µg/mL (≈ 0.996 µM). For the same compound, the “%T/C” value in the data set on LS174T (250 mg/kg i.p.) is given as 59 %T/C; in the data set on LS174T (300 mg/kg i.p.), 44 %T/C. In addition, the “% ILS” value is reported as “+18%” in the data set with COLON 26 (COLON 26, 100 mg/kg i.p., days 5,9,13); “+24%” in the data set with COLON 26 (setting [5]); “+35%” in the data set on COLON 26 (COLON 26, 250 mg/kg i.p., days 5,9,13); “+2%” in the data set with P388 [1] (setting [6]); “+20%” with P388 [1] (setting [7]); “+57%” with P388 [1] (setting [8]). In addition, the “IC50 (µg/ml) A2780 DDP” value with A2780 DDP was 3.70 µg/mL (≈ 9.22 µM).

Consider `CN(C)CCNC(=O)c1cccn2c(=O)c3ccc(-c4cccc(N)c4)cc3nc12` [Example 35, 11H-Pyrido[2,1-b]quinazoline-6-carboxamide, 3-(3-aminophenyl)-N-[2-(dimethylamino)ethyl]-11-oxo], for which the “IC50 (µg/ml) A2780 S” value in the data set with A2780 S turned out to be 0.50 µg/mL (≈ 1.25 µM). In the data set on A2780 DDP, the “IC50 (µg/ml) A2780 DDP” value worked out at 0.40 µg/mL (≈ 0.996 µM).

For the compound `Cl.Cl.Cl.Nc1ccccc1-c1ccc2nc3c(C(=O)NCCNCCO)cccn3c(=O)c2c1` [Example 30, 11H-Pyrido[2,1-b]quinazoline-6-carboxamide, 2-(2-aminophenyl)-N-[2-[(2-hydroxyethyl)amino]ethyl]-11-oxo-trihydrochloride], in the data set with A2780 S, the “IC50 (µg/ml) A2780 S” value was found to be 4.80 µg/mL. The “IC50 (µg/ml) A2780 DDP” value in the data set on A2780 DDP worked out at 6.90 µg/mL.

With `CN(C)CCNC(=O)c1cccn2c(=O)c3cc(-c4cc(C(F)(F)F)cc(C(F)(F)F)c4)ccc3nc12` [Example 20, 11H-Pyrido[2,1-b]quinazoline-6-carboxamide, 2-[3,5-bis(trifluoromethyl)phenyl]-N-[2-(dimethylamino)ethyl]-11-oxo], in the data set on A2780 S, the “IC50 (µg/ml) A2780 S” value was found to be 3.80 µg/mL (≈ 7.27 µM). In addition, the “IC50 (µg/ml) A2780 DDP” value with A2780 DDP came out at 3.00 µg/mL (≈ 5.74 µM).

In the case of `CN(C)CCNC(=O)c1cccn2c(=O)c3cc(-c4cccc5ccccc45)ccc3nc12` [Example 17, 11H-pyrido[2,1-b)quinazoline-6-carboxamide, N-[2-(dimethylamino)ethyl]-2-(1-naphthalenyl)-11-oxo], the “IC50 (µg/ml) A2780 S” value in the data set on A2780 S was 4.60 µg/mL (≈ 10.5 µM). Also, in the data set with A2780 DDP, the “IC50 (µg/ml) A2780 DDP” value came to 4.70 µg/mL (≈ 10.8 µM).

With `CN(C)CCNC(=O)c1cccn2c(=O)c3cc(-c4cccc(C(F)(F)F)c4)ccc3nc12` [Example 18], the “IC50 (µg/ml) A2780 S” value in the data set on A2780 S worked out at 1.10 µg/mL (≈ 2.42 µM). Also, the “IC50 (µg/ml) A2780 DDP” value in the data set on A2780 DDP turned out to be 4.20 µg/mL (≈ 9.24 µM).

Consider `COc1cccc2c1C(=O)c1c(O)c3c(c(O)c1C2=O)C[C@@](O)(C(=O)CO)C[C@@H]3O[C@H]1C[C@H](N)[C@H](O)[C@H](C)O1` [Adriamycin, reference compound], for which the “% ILS” value with COLON 26 (COLON 26, 4 mg/kg i.p., days 5,9,14) is “+71%”.

Turning to `CN(C)CCNC(=O)c1cccn2c(=O)c3cc(-c4cccc(-c5ccccc5)c4)ccc3nc12` [Example 15, 11H-Pyrido[2,1-b]quinazoline-6-carboxamide, 2-[1,1'-biphenyl]-3-yl-N-[2-(dimethylamino)ethyl]-11-oxo], the “IC50 (µg/ml) A2780 S” value in the data set on A2780 S turned out to be 0.60 µg/mL (≈ 1.3 µM). The “% ILS” value is “+8%” with P388 [1] (setting [6]); “+2%” in the data set on P388 [1] (setting [7]); -40% with P388 [1] (P388, 200 mg/kg i.p., days 1,5). For the same compound, in the data set on A2780 DDP, the “IC50 (µg/ml) A2780 DDP” value came to 0.80 µg/mL (≈ 1.73 µM).

As to `COc1ccc(-c2ccc3nc4c(C(=O)NCCN(C)C)cccn4c(=O)c3c2)cc1` [Example 19, 11H-Pyrido[2,1-b]quinazoline-6-carboxamide, N-[2-(dimethylamino)ethyl]-2-(4-methoxyphenyl)-11-oxo], the “IC50 (µg/ml) A2780 S” value with A2780 S was determined as 4.30 µg/mL (≈ 10.3 µM). Moreover, the “% ILS” value in the data set on P388 [1] (setting [6]) was -9%; with P388 [1] (setting [7]), “+4%”; with P388 [1] (setting [8]), “+6%”. Besides, the “IC50 (µg/ml) A2780 DDP” value in the data set on A2780 DDP worked out at 3.40 µg/mL (≈ 8.16 µM).

As to `Cl.Cl.Cl.Nc1cccc(-c2ccc3nc4c(C(=O)NCCNCCO)cccn4c(=O)c3c2)c1` [Example 24, 11H-Pyrido [2,1-b]quinazoline-6-carboxamide, 2-(3-aminophenyl)-N-[2-[(2-hydroxyethyl)amino]ethyl]-11-oxo-trihydrochloride], in the data set on A2780 S, the “IC50 (µg/ml) A2780 S” value is 0.60 µg/mL. The “% ILS” value in the data set on COLON 26 (setting [5]) is given as “+24%”; with COLON 26 (COLON 26, 300 mg/kg i.p., days 5,9,13), -24%; with P388 [1] (P388, 25 mg/kg i.p., days 1,5,9) it was “+12%”; with P388 [1] (setting [6]), “+4%”; in the data set on P388 [1] (setting [7]), “+4%”; with P388 [1] (setting [8]), 0%. Further, the “IC50 (µg/ml) A2780 DDP” value in the data set with A2780 DDP stood at 2.10 µg/mL.

In the case of `CN(C)CCNC(=O)c1cccn2c(=O)c3ccccc3nc12` [I, N-[2-(dimethylamino)ethyl]-11-oxo-11H-pyrido[2,1-b]quinalzoline-6-carboxamide], the in vitro activity entry in data set [2] is given as “some in vitro activity”. In addition, the “activity in a P388 mouse model” value with P388 [3] was “inactive”. Moreover, the mutagenic activity result in data set [4] is recorded as “mutagenic activity”.

Take `CN(C)CCNC(=O)c1cccn2c(=O)c3cc(-c4cc5ccccc5c5ccccc45)ccc3nc12` [Example 16]: the “IC50 (µg/ml) A2780 S” value in the data set with A2780 S was 4.10 µg/mL (≈ 8.43 µM). Moreover, the “IC50 (µg/ml) A2780 DDP” value with A2780 DDP came out at 5.30 µg/mL (≈ 10.9 µM).
